According to US11078194B2, “Salt form and crystal form serving as FGFR and VEGFR inhibitor compounds, and preparation method therefor” (HARBIN ZHENBAO PHARMACEUTICAL CO., LTD., priority 2017, dated 2021):
Like-named read-outs stand apart in the source and are kept apart here.

Test: Solubility test of compounds of formula (I)-(IV) in 4 vehicles (water, SGF, FaSSIF, FeSSIF), HPLC
Type: physicochemical
Conditions: for solubility at 4 h / solubility at 24 h: thermodynamic from solid; for solubility at 4 h / Solubility (μg/mL)_4 hours: 4 hours stirring; for solubility at 4 h: read-out: Solubility (μg/mL)_4 hours; for solubility at 24 h / Solubility (μg/mL)_24 hours: 24 hours stirring; for solubility at 24 h: read-out: Solubility (μg/mL)_24 hours
Protocol: About 5 mg of the compound of formula (I) was weighed accurately, and placed in a sample bottle. 10 mL of acetonitrile was added. The mixture was sonicated for 5 minutes, cooled to room temperature, and well mixed. Two control sample solutions were prepared in parallel, and labeled as STD-1 and STD-2, respectively.
The control sample solution STD-1 was serially diluted 1, 5, 10, 100 and 1000 times and labeled as linear solutions L1, L2, L3, L4 and L5.
The solubility of the compound of formula (I) and its salt in 4 vehicles with different pH were tested. About 10 mg of the compounds of formula (I)-(IV) were weighed respectively, then 5.0 mL of different vehicles (water, SGF, FaSSIF, FeSSIF) were added thereto, respectively, and well mixed to obtain suspensions. Magnetic stir bars were added into the suspensions, and the suspensions were placed on a magnetic stirrer for stirring. After stirring for 2 hours, 4 hours, and 24 hours, the samples were collected and centrifuged. The residual solid samples in the lower layer were detected by XRPD. The concentrations of the samples in the upper layer were determined by HPLC, and the pH value of the samples were also detected.
(§1) FaSSIF: (1) 0.042 g of sodium hydroxide, 0.3438 g of sodium dihydrogen phosphate and 0.6186 g of sodium chloride were weighed, and 90 mL of purified water was added and well mixed. The pH value of the obtained solution were adjusted to 6.5 with 1 N hydrochloric acid or 1 N sodium hydroxide, and the solution were diluted with purified water to a final volume of 100 mL. (2) 50 mL of the above buffer solution was taken, followed by addition of 0.224 g of commercially available FaSSIF/FeSSIF/FaSSGF powder (Biorelevant.com). The buffer solution was stirred until dissolved, and diluted with purified water to a final volume of 100 mL. The buffer solution was placed at room temperature.
as §1, with “FeSSIF:” for “FaSSIF:”, “0.404” for “0.042”, “0.865” for “0.3438”, “glacial acetic acid, 1.1874” for “sodium dihydrogen phosphate and 0.6186”, “5.0” for “6.5”, “1.12” for “0.224”
FaSSGF (SGF): (1) 0.2 g of sodium chloride was added to 90 mL of purified water and mixed well. The pH value thereof was adjusted to 1.8 with 1 N hydrochloric acid and the solution diluted with purified water to a final volume of 100 mL. The obtained solution was allowed to stand at room temperature.

[1] = FeSSIF, pH 5, fessif, vehicle FeSSIF
[2] = pH of sample in FaSSIF (vehicle pH 6.62)
[3] = pH of sample in FeSSIF (vehicle pH 4.59)
[4] = pH of sample in H2O (vehicle pH 8.23)
[5] = pH of sample in SGF (vehicle pH 1.57)

| SMILES | pH (4 hours) [2] | pH (24 hours) [2] | pH (4 hours) [3] | pH (24 hours) [3] | pH (4 hours) [4] | pH (24 hours) [4] | pH (4 hours) [5] | pH (24 hours) [5] | Solubility (μg/mL)_24 hours (vehicle FaSSIF) [µg/mL] | Solubility (μg/mL)_4 hours (vehicle H2O) [µg/mL] | Solubility (μg/mL)_4 hours (vehicle SGF) [µg/mL] | Solubility (μg/mL)_24 hours (vehicle SGF) [µg/mL] | also measured |
| --- | --- | --- | --- | --- | --- | --- | --- | --- | --- | --- | --- | --- | --- |
| C[C@@H](Oc1ccc2[nH]nc(/C=C(\F)c3ccc(CNC4CCOCC4)nc3)c2c1)c1c(Cl)cncc1Cl [compound of formula (I)] | 6.58 | 6.57 | 5.01 | 5.01 | 8.33 | 7.97 | 2.10 | 2.06 | 611.3 | 5.8 | 1971.3 | 1825.6 | solubility at 4 h (FaSSIF, pH 6.5, fassif, vehicle FaSSIF): 781 µg/mL; solubility at 4 h [1]: 1950 µg/mL; solubility at 24 h [1]: 1730 µg/mL; solubility in the three biological vehicle (SGF, FaSSIF, FeSSIF, conclusion in words): good solubility; Solubility (μg/mL)_24 hours (vehicle H2O): <LOQ; solubility in the aqueous phase / water (water, conclusion in words, listed as free base): extremely difficult to dissolve |
| C[C@@H](Oc1ccc2[nH]nc(/C=C(\F)c3ccc(CNC4CCOCC4)nc3)c2c1)c1c(Cl)cncc1Cl [compound of formula (II)] | 6.25 | 6.22 | 4.90 | 4.91 | 2.68 | 2.68 | 1.86 | 1.86 | 281.6 | 1576.9 | 106.3 | 45.4 | Solubility (μg/mL)_4 hours (vehicle FaSSIF): 949.7 µg/mL; Solubility (μg/mL)_4 hours (vehicle FeSSIF): 2010.0 µg/mL; Solubility (μg/mL)_24 hours (vehicle FeSSIF): 1831.5 µg/mL; solubility at 24 h (water, pH 8.23, water, vehicle H2O): 1540 µg/mL; solubility in the aqueous phase / water (water, conclusion in words, listed as hydrochloride): highest solubility |
